According to article PMC12808100, “The non-catalytic DNA polymerase ε subunit is an NPF motif recognition protein” (Nature Communications, 2025):
Residues, ends and D or L forms follow the SMILES beside them.

Assays:
EHD1 = target: T1, EHD1 (Homo sapiens, UniProt Q9H4M9); test: nHU-MS peptide bait, prey EHD1; conditions: for BI: prey EHD1, MS7_Varjosalo
T1 sequence (Q9H4M9 1-534): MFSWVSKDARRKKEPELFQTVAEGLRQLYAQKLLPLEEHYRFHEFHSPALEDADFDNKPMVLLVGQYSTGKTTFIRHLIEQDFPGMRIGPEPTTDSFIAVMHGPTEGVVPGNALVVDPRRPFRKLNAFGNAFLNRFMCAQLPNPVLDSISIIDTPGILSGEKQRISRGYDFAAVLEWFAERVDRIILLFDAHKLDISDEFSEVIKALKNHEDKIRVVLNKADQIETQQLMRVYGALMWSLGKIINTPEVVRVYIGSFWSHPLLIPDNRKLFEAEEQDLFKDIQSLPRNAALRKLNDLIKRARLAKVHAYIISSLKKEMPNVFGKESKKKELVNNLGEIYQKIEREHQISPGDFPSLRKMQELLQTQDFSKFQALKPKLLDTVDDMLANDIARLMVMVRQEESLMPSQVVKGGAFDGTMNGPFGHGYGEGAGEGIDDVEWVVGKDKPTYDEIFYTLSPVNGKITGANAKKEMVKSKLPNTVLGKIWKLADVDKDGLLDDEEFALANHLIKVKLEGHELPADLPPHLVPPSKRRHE

PLEK = PLEK (Homo sapiens, UniProt P08567); test: nHU-MS peptide bait, prey PLEK
CCDC174 = CCDC174 (Homo sapiens, UniProt Q6PII3); test: nHU-MS peptide bait, prey CCDC174
AURKA = AURKA (Homo sapiens, UniProt O14965); test: nHU-MS peptide bait, prey AURKA
SSBP2 = SSBP2 (Homo sapiens, UniProt P81877+Q86U70); test: nHU-MS peptide bait, prey SSBP2
SSBP4 = SSBP4 (Homo sapiens, UniProt Q86U70+Q9BWG4); test: nHU-MS peptide bait, prey SSBP4
HSPA5 = HSPA5 (Homo sapiens, UniProt P11021); test: nHU-MS peptide bait, prey HSPA5
PPP2R2A = target: T2, PPP2R2A (Homo sapiens, UniProt P63151); test: nHU-MS peptide bait, prey PPP2R2A; conditions: for Kd: pKapp
T2 sequence (P63151 1-447): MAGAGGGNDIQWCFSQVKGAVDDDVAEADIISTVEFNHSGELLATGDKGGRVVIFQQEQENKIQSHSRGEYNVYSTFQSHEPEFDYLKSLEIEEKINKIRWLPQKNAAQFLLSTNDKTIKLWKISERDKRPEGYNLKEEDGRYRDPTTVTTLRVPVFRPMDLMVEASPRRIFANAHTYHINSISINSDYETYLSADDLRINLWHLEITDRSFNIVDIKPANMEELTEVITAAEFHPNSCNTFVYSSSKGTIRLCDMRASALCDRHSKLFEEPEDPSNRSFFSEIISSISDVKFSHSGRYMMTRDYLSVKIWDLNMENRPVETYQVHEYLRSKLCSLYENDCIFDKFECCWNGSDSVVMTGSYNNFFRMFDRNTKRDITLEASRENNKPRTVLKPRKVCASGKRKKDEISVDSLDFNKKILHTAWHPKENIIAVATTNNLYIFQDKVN

Sequence of SSBP2 (P81877 whole entry): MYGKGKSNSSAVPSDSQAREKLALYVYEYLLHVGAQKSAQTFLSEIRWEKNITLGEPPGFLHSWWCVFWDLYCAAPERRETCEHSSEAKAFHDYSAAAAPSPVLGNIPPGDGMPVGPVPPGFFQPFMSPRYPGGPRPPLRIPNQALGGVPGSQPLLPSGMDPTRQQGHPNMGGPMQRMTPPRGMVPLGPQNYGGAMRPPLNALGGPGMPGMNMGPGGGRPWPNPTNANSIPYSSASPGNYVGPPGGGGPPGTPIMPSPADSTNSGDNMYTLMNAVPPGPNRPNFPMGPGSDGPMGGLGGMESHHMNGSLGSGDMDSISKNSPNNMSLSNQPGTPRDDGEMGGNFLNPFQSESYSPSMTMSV
Sequence of SSBP2 (Q86U70 whole entry): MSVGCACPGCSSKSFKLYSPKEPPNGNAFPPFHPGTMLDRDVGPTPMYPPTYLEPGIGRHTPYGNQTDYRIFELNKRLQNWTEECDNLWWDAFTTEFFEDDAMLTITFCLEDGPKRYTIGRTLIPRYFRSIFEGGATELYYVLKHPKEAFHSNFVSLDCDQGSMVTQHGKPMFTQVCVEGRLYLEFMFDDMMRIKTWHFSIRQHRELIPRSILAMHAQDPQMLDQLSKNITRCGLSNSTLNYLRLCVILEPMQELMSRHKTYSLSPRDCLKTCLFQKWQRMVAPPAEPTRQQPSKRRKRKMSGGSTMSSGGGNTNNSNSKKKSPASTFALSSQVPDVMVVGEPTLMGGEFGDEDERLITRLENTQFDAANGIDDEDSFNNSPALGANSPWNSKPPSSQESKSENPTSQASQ
Sequence of AURKA (O14965 whole entry): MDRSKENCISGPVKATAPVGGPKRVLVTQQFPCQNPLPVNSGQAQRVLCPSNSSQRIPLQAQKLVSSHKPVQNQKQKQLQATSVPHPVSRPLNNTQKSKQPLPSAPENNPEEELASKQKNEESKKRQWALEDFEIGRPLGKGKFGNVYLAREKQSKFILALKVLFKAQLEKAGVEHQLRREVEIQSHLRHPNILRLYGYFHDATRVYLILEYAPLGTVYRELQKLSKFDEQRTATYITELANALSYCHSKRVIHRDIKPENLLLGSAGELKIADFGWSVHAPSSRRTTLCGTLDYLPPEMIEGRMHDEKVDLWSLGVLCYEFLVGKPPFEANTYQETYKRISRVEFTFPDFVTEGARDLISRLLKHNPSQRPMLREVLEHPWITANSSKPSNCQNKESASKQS
Sequence of SSBP4 (Q9BWG4 whole entry): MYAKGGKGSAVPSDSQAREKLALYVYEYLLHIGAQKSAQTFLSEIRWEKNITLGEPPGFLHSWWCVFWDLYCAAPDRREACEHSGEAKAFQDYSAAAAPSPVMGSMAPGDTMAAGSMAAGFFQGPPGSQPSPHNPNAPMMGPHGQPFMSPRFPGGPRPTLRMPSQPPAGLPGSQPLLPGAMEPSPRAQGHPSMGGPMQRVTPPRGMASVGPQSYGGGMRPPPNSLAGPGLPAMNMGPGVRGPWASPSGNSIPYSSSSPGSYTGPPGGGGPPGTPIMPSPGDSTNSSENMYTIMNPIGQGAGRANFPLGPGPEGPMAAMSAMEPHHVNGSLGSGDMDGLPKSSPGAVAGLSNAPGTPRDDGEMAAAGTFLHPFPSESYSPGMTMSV
Sequence of SSBP4 (Q86U70 whole entry): as the sequence (Q86U70 whole entry) above
Sequence of HSPA5 (P11021 19-654): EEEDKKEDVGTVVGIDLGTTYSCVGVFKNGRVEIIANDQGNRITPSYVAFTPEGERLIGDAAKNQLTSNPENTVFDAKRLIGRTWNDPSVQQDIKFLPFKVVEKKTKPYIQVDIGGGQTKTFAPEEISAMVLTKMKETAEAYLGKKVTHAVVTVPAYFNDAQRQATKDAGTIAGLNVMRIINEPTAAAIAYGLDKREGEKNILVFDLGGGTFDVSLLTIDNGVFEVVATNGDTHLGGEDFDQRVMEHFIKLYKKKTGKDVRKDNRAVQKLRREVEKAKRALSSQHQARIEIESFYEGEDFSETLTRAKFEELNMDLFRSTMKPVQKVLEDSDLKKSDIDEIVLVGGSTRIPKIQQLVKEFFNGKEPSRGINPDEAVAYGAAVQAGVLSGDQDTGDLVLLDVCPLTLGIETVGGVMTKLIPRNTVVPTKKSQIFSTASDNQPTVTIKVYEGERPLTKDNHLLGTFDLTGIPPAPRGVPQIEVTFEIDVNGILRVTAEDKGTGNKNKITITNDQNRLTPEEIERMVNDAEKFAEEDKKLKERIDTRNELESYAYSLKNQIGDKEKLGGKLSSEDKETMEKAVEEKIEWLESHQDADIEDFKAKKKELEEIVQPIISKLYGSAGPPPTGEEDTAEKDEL
Sequence of CCDC174 (Q6PII3 whole entry): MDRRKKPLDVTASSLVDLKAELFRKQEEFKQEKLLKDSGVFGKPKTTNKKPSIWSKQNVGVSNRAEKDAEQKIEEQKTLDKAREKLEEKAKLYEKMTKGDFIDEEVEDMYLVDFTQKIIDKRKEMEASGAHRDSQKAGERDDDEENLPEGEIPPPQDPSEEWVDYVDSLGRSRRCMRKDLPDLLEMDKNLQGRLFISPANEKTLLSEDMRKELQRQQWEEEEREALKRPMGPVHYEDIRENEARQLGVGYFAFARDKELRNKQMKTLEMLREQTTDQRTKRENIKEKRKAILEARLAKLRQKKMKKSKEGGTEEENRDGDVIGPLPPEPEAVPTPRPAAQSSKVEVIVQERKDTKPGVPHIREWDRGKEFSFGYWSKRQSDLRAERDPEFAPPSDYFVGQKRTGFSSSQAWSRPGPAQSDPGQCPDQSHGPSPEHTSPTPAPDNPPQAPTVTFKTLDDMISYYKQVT
Sequence of PLEK (P08567 whole entry): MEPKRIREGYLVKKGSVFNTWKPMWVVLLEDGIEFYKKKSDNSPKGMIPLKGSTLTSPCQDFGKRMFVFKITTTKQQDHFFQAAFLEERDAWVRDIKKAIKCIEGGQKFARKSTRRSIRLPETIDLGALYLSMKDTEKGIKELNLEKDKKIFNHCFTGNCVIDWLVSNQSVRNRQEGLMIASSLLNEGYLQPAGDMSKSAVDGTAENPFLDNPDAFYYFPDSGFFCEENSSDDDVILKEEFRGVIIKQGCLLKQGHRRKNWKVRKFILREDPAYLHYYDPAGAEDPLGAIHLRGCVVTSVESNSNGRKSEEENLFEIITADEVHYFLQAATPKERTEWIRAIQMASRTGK

SMILES | Kd (EHD1) | BI (EHD1) | Kd (PLEK) | BI (PLEK; prey PLEK, MS7_Varjosalo) | Kd (CCDC174) | BI (CCDC174; prey CCDC174, MS7_Varjosalo) | Kd (AURKA) | BI (AURKA; prey AURKA, MS8_Varjosalo) | Kd (SSBP2) | BI (SSBP2; prey SSBP2, MS8_Varjosalo) | Kd (SSBP4) | BI (SSBP4; prey SSBP4, MS8_Varjosalo) | Kd (HSPA5) | BI (HSPA5; prey HSPA5, MS5_Varjosalo) | BI (PPP2R2A; MS5_Varjosalo) | BI (PPP2R2A; MS7_Varjosalo) | Kd (PPP2R2A; MS5_Varjosalo) | Kd (PPP2R2A; MS7_Varjosalo)
CC[C@H](C)[C@H](NC(=O)[C@@H](N)CCCNC(=N)N)C(=O)N1CCC[C@H]1C(=O)N[C@H](C(=O)N[C@@H](CC(C)C)C(=O)N[C@@H](CC(N)=O)C(=O)N1CCC[C@H]1C(=O)N[C@@H](Cc1ccccc1)C(=O)N[C@@H](CCC(=O)O)C(=O)N[C@@H](CO)C(=O)N1CCC[C@H]1C(=O)N[C@@H](CO)C(=O)N[C@@H](CC(=O)O)C(=O)N[C@@H](Cc1ccc(O)cc1)C(=O)N[C@@H](CO)C(=O)N[C@@H](CC(N)=O)C(=O)N[C@@H](CC(C)C)C(=O)N[C@@H](Cc1c[nH]cn1)C(=O)N[C@@H](CCC(=O)O)C(=O)N[C@@H](CCC(N)=O)C(=O)N[C@H](C(N)=O)[C@@H](C)O)C(C)C [BORA] (H-RIPVLNPFESPSDYSNLHEQT-NH2) | 39.4 µM | 0.2025 | 9.44 µM | 0.5145 | 10.9 µM | 0.4787 |  |  |  |  |  |  |  |  |  |  |  | 
CSCC[C@H](NC(=O)[C@@H]1CCCN1C(=O)[C@@H](NC(=O)[C@@H]1CCCN1C(=O)[C@@H]1CCCN1C(=O)[C@@H]1CCCN1C(=O)[C@H](C)NC(=O)[C@H](Cc1ccccc1)NC(=O)[C@H](CCC(=O)O)NC(=O)[C@@H](NC(=O)[C@H](CC(C)C)NC(=O)[C@@H](N)Cc1c[nH]cn1)[C@@H](C)O)[C@@H](C)O)C(=O)N[C@H](C(=O)N[C@@H](CC(=O)O)C(=O)N[C@@H](Cc1c[nH]cn1)C(=O)N[C@@H](CC(C)C)C(=O)N[C@H](C(=O)N[C@@H](C)C(=O)N[C@@H](CO)C(=O)N[C@@H](CC(N)=O)C(=O)N1CCC[C@H]1C(=O)N[C@@H](Cc1ccccc1)C(=O)N[C@@H](CCC(=O)O)C(=O)N[C@@H](CC(=O)O)C(=O)N[C@@H](CC(=O)O)C(=O)N[C@@H](Cc1ccccc1)C(=O)NCC(=O)N[C@@H](C)C(=O)N1CCC[C@H]1C(=O)N[C@@H](CCCCN)C(N)=O)C(C)C)C(C)C [PYGO2 57-86] |  |  |  |  |  |  | 28.6 µM | 0.2591 | 18.9 µM | 0.3462 | 12.2 µM | 0.451 |  |  |  |  |  | 
CC[C@H](C)[C@H](NC(=O)[C@H](Cc1ccccc1)NC(=O)[C@@H]1CCCN1C(=O)[C@H](CC(N)=O)NC(=O)[C@@H]1CCCN1C(=O)[C@H](CO)NC(=O)[C@H](CO)NC(=O)[C@@H](N)CCCNC(=N)N)C(=O)N[C@H](C(=O)NCC(=O)N[C@@H](CC(C)C)C(=O)N[C@H](C(=O)N[C@@H](CCCNC(=N)N)C(=O)N[C@H](C(=O)N[C@@H](CC(N)=O)C(=O)N1CCC[C@H]1C(=O)N[C@@H](Cc1ccccc1)C(=O)N[C@@H](CO)C(=O)N[C@@H](CC(=O)O)C(=O)N[C@@H](CCCNC(=N)N)C(=O)N[C@H](C(=O)N[C@@H](C)C(=O)N[C@@H](C)C(=O)N1CCC[C@H]1C(=O)NCC(=O)N[C@@H](CC(N)=O)C(=O)N1CCC[C@H]1C(=O)N[C@@H](Cc1ccccc1)C(=O)N[C@@H](CCCNC(=N)N)C(=O)N[C@@H](C)C(=O)N[C@@H](CCCCN)C(=O)N[C@@H](CO)C(N)=O)[C@@H](C)O)[C@@H](C)O)[C@@H](C)O)[C@@H](C)O [SYNJ1_1390-1421] (H-RSSPNPFITGLTRTNPFSDRTAAPGNPFRAKS-NH2) | 24.3 µM | 0.2916 |  |  |  |  |  |  |  |  |  |  | 19.9 µM | 0.3347 | 0.2309 | 0.2507 | 33.3 µM | 29.9 µM
